Measurements reported in patent US9822343B2, “Methods and materials for obtaining induced pluripotent stem cells” (priority 2011, dated 2017).

Assays:
Assay type in all cases: cell-based, mouse
parental MEF population = assay: Growth of the parental MEF population; conditions: 1.25 mM 2-DG, 100 μM BrPA, 5 mM DCA
MEFs = assay: 1H NMR metabolomic footprinting of extracellular metabolites of treated MEFs; conditions: control experiments; 1.25 mM 2-DG, 100 μM BrPA, 5 mM DCA versus vehicle; n=3
Description: For footprinting of extracellular metabolites, 540 μL of media collected following 24 hours of culture was added to 60 μL of D2O (Sigma) containing 5 mM sodium 3-(trimethylsilyl)propionate-2,2,3,3-d4 (TSP) (Sigma) for chemical shift reference and 81.84 mM formate (Sigma) for peak quantification reference as described elsewhere (Turner et al., Stem Cells, 26:1547-1555 (2008)). Briefly, MEFs, iPS cells, and R1ESC were maintained in DMEM containing 15% FBS, pyruvate, L-glutamine, nonessential amino acids, 2-mercaptoethanol, and LIF in 6 well plates at 37° C. in a humidified incubator with 95% air and 5% CO2 (Martinez-Fernandez et al., Circ Res., 25; 105(7):648-56 (2009)). […]
For intracellular metabolite fingerprinting, neutralized perchloric acid extracts were concentrated with a SpeedVac and suspended in 600 μL of 100 mM phosphate buffer (pH 7.0) in D2O (Sigma) containing 0.5 mM TSP as described elsewhere (Beckonert et al., Nat. Protoc., 2:2692-2703 (2007)). […] Following Fourier transformation, spectra were autophased with metabonomic phase correction, baseline corrected using a Bernstein polynomial fit and referenced to the TSP peak (0.00 ppm) using MestReNova 5.3.2 (MestRelab Research). p-toluenesulfonic acid (Sigma) was utilized as a reference standard to calibrate the formate concentration for quantitative analysis (Shao et al., J. Chromatogr. A, 1138:305-308 (2007)). […]

[1] = test system: MEFs undergoing nuclear reprogramming; assay: Reprogramming efficiency by FACS analysis of SSEA-1 expression; conditions: vehicle 27.8±3.1, mean±SEM, n=3
Source text: (§1) Mouse embryonic fibroblasts (MEFs) were transduced with HIV-based viral vectors encoding OCT3/4, SOX2, and KLF4 either in the presence (4F) or absence of c-MYC (3F) to produce iPS clones that met pluripotent criteria including expression of stem cell markers, embryoid body differentiation, teratoma formation, diploid aggregation, and contribution to organogenesis (Martinez-Fernandez et al., Circ. Res., 105:648-656 (2009); Nelson et al., Clin. Transl. Sci., 2:118-126 (2009); and Nelson et al., Circulation, 120:408-416 (2009)). Alternatively, iPS cells were derived with a viPS (Open Biosystems) kit. iPS cells were induced and maintained in ES Cell qualified DMEM supplemented with 15% FBS, 25 mM glucose, 2 mM Glutamax (Invitrogen), and 1 mM sodium pyruvate. In reprogramming experiments, media was supplemented with 0.25 or 1.25 mM 2DG (Sigma), 100 μM BrPA (Sigma) or 5 mM DCA (Sigma). Reprogramming efficiency was quantified using an alkaline phosphatase staining kit (Stemgent) or FACS analysis of SSEA-1 expression (Millipore) on a LSR II flow cytometer.

[2] = test system: MEFs undergoing nuclear reprogramming; assay: Reprogramming efficiency by alkaline phosphatase staining; conditions: 2-DG during reprogramming (media supplemented with 0.25 or 1.25 mM 2DG)
Source text: as §1

| Compound | Cell growth of parental MEF population (parental MEF population) | Extracellular metabolite profile of treated MEFs (MEFs) | % SSEA1 positive cells (reprogramming efficiency) ([1]; 100 μM BrPA during reprogramming) [% SSEA1 positive cells] | % SSEA1 positive cells (reprogramming efficiency) ([1]; 1.25 mM 2-DG during reprogramming) [% SSEA1 positive cells] | Induction of the pluripotent marker alkaline phosphatase [2] | % SSEA1 positive cells (reprogramming efficiency) ([1]; 5 mM DCA during reprogramming) [% SSEA1 positive cells] |
| --- | --- | --- | --- | --- | --- | --- |
| O=C(O)C(=O)CBr [BrPA, 3-bromopyruvic acid] | without impairing cell growth | consistent with inhibition of glycolysis and stimulation of oxidative metabolism | 19.8±1.0 |  |  |  |
| O=CC[C@@H](O)[C@H](O)[C@H](O)CO [2-DG, 2-deoxyglucose] | without impairing cell growth | consistent with inhibition of glycolysis and stimulation of oxidative metabolism |  | 0.9±0.3 | blunted induction of the pluripotent marker alkaline phosphatase |  |
| O=C(O)C(Cl)Cl [DCA, dichloroacetate] | without impairing cell growth |  |  |  |  | 17.3±1.5 |
